Data reported in patent publication US20220002280A1, “COMPOUNDS AND METHODS OF USE” (Ferro Therapeutics, Inc., priority 2019, published 2022).
Where a name gives a salt, the structure may show the parent alone. One block for each compound: values may come before it.

Key:
786-O [1] = test: GPX4 inhibition assay: Ferrostatin rescue, 786-O; assay type: cell-based; settings: Homo sapiens, 786-0, 786-O cells
Method: (§1) Cells (SJSA-1, 786-0 and/or A431) were seeded (5000 cells/100 μL/well) in 96-well tissue culture plate and incubated at 37° C./5% CO2 for 16-24 hours. The cells were then treated with compounds (25 μL of 5×). The compound concentrations were 10-0.0005 μM prepared in 3-fold serial dilutions with final DMSO concentration of 1%. The plates were then incubated for 24h at 37° C./5% CO2 in a moist environment. Then Alamar Blue™ reagent (final concentration 1×-12.5 μL) was added to each well and incubated for 1.5 hours at 37° C./5% CO2. The plates were read on fluorescence reader at 540 nm excitation and 590 nm emission wavelengths. The IC50 values were subsequently determined using a sigmoidal dose-response curve (variable slope) in GraphPad Prism® 5 software.
(§2) Studies have shown that lipophilic antioxidants, such as Ferrostatin, can rescue cells from GPX4 inhibition-induced ferroptosis. For instance, mesenchymal state GPX4-knockout cells can survive in the presence of Ferrostatin, however, when the supply of Ferrostatin is terminated, these cells undergo ferroptosis (see, e.g., Viswanathan et al., Nature 547:453-7, 2017). […] Accordingly, the ability of a molecule to induce ferroptotic cancer cell death, and that such ability is admonished by the addition of Ferrostatin, is clear indication that the molecule is an GPX4 inhibitor.

SJSA-1 [2] = test: GPX4 inhibition assay: Ferrostatin rescue, SJSA-1; assay type: cell-based; settings: Homo sapiens, SJSA-1 cells
Method: as §1, §2

786-O [3] = test: Cell proliferation (Alamar Blue) assay, 786-O; assay type: cell-based, human; settings: 786-O cells, 24 h treatment
Method: (§3) A cell viability assay was performed to assess the potency of the compounds in human cancer cell lines 786-0 (renal cell carcinoma), SJSA-1 (osteosarcoma), and/or A431 (epidermoid carcinoma). Additional cell lines, such as pancreatic cancer cell lines (e.g., Panc 02.13, BxPC-3, Panc 12, Panc 02.03, Panc 6.03, PSN-1, HPAC, and Capan-1), prostate cancer cell lines (e.g., PC-3, DU145, 22Rv1, NCI-H660, BPH1, LNCaP, BM-1604, and MDA PCa 2b), etc., can be tested in a similar method.
as §1

SJSA-1 [4] = test: Cell proliferation (Alamar Blue) assay, SJSA-1; assay type: cell-based, human; settings: SJSA-1 cells, 24 h treatment
Method: as §3, §1

A431 = test: Cell proliferation (Alamar Blue) assay, A431; assay type: cell-based, human; settings: 24 h treatment
Method: as §3, §1

[5] = Mouse IV pharmacokinetics; assay type: in vivo, Balb/c mice; settings: male, Balb/c, plasma; Mouse IV-PK (5 mg/kg)
Excerpt: (§4) Institutional Animal Ethical Committee (IAEC) of Jubilant Biosys (IAEC/JDC/2019/188R (for Mice) and IAEC/JDC/2019/189R (for Rat) nominated by CPCSEA (Committee for the Purpose of Control and Supervision of Experiments on Animals) approved the mice and rat pharmacokinetic experiments. Male Balb/c mice (˜6-8 weeks old with body weight range of 22-25 g) and male SD rats (6-8 weeks old with body weight range of 200-250 g) were procured from Vivo Biotech, Hyderabad, India. Animals were quarantined in Jubilant Biosys Animal House for a period of 7 days with a 12:12 h light: dark cycles, and prior to the study the animals were stratified as per body weight.
A) Procedure for Mice: Intravenous, oral and intraperitoneal pharmacokinetics study was done at doses of 5, 20 and 10 mg/kg respectively at dose volume of 10 mL/Kg for PO and IP while 5 mL/kg for IV route. Sparse sampling was done and at each time point three mice were used for blood sampling (˜100 μL) were collected from retro-orbital plexus at 0.083 (Only for IV), 0.25, 0.5, 1, 2, 4, 8, 10 (only for PO) and 24 h. Blood samples collected in tubes containing K2.EDTA as anticoagulant and centrifuged for 5 min at 10,000 rpm in a refrigerated centrifuge (Biofuge, Heraeus, Germany) maintained at 4° C. for plasma separation.
Group I (IV) received test compound intravenously by tail vein at 5 mg/Kg in solution formulation prepared using 30% Kolliphore EL in WFI; dose volume: 5 mL/Kg; strength: 1 mg/mL.
(§5) Blood concentration-time data of test compound was analyzed by non-compartmental method using Phoenix WinNonlin Version 8.1.

Rat IV pharmacokinetics = assay type: in vivo, SD rats; settings: male, SD, plasma; Rat IV-PK (2 mg/kg)
Excerpt: as §4
B) Procedure for rat: Intravenous and oral pharmacokinetics study was done at a dose 2 and 10 mg/kg at dose volume of 2 and 10 mL/Kg. Serial blood sampling was done and at each time point (˜200 μL) were collected from retro-orbital plexus at 0.083 (only for IV), 0.25, 0.5, 1, 2, 4, 8, 10 (only for PO) and 24 h. Blood samples collected in tubes containing K2.EDTA as anticoagulant and centrifuged for 5 min at 10,000 rpm in a refrigerated centrifuge (Biofuge, Heraeus, Germany) maintained at 4° C. for plasma separation.
Group I (IV) received test compound intravenously by tail vein at 2 mg/Kg in solution formulation prepared using 30% Kolliphore EL in WFI; dose volume: 2 mL/Kg; strength: 1 mg/mL.
as §5

A549 = test: Counter-screen in A549 (CellTiter Glo); assay type: cell-based, human; settings: Homo sapiens, A549 cells, 96 hours
Method: Selected compounds were also assayed (counter-screened) in a human lung cancer cell line, A549, a less sensitive cell line to GPX4 inhibitors, as a control to assess differential activity. Cells at a density of 800-2,000 cells/well were seeded in 96-well plates and incubated at 37° C. overnight. A series of nine different concentrations of compound stocks (500×) were created by 3-fold serial dilution in DMSO. These compounds were further diluted in culture media and then added to cells so that the final DMSO concentration was equal to 0.25% or less. After 96 hours of incubation, 50 μL of CellTiter Glo reagent (Promega) was added to each well and luminescence was measured after 10 minutes using EnVision (PerkinElmer). RSL3 (a prototype GPX4 inhibitor, also known as RSL-3) was used as a reference compound titrated from top concentration of up to 30 μM. All compounds were tested initially from 30 µM as the top concentration in duplicates (range of 4.6 nM-30 μM). […] Luminescence from cells treated with DMSO alone was set as Max and % of inhibition was calculated as follows: Inhibition %=(Max-Sample value)/Max*100. Data was analyzed using XL-fit software (ID Business Solutions Ltd.). IC50, relative IC50, or % of top inhibition was calculated.

KP4 = test: Cell viability in KP4 (Table 4); assay type: cell-based; settings: Homo sapiens, KP-4; KP4 cells
[6] = 2 μM Ferrostatin, read-out: 786-O (IC50, μM) 2 μM Ferrostatin
[7] = 2 μM Ferrostatin, read-out: SJSA-1 (IC50, μM) 2 μM Ferrostatin
[8] = Homo sapiens, A-431, A431 cells
[9] = without Ferrostatin, read-out: 786-O (IC50, μM) Without Ferrostatin
[10] = without Ferrostatin, read-out: SJSA-1 (IC50, μM) Without Ferrostatin

IC50 (SJSA-1 [4]; Homo sapiens): 2.56 µM
SMILES: COc1ccc2c(c1)C[C@H](C)N(C(=O)CCl)[C@@H]2c1ccc(N2CCOCC2)cc1 [Compound 46]
IC50 (A549): 3.83 µM

IC50 (786-O [3]): 0.259 µM | IC50 (SJSA-1 [4]; Homo sapiens): 0.329 µM
SMILES: COc1ccc2c(c1)C[C@H](C)N(C(=O)CCl)[C@H]2c1ccc(N2CCOCC2)cc1 [Compound 47]
IC50 (A549): 6.58 µM

IC50 (786-O [3]; Homo sapiens, 786-0, 24 h): 0.013 µM | IC50 (SJSA-1 [4]; Homo sapiens): 0.021 µM | IC50 (A431; [8]): 4.06 µM
SMILES: C#CC(=O)N1[C@@H](CCCC)Cc2cc(OC)ccc2[C@@H]1c1ccc(CNC23CC(C2)C3)cc1 [Compound 100]

IC50 (786-O [3]; hydrochloride): 0.008 µM | IC50 (SJSA-1 [4]; hydrochloride): 0.0115 µM | IC50 (A431; A431 cells, hydrochloride): 6.87 µM
SMILES: C#CC(=O)N1[C@@H](CCCC)Cc2cc(OC)ccc2[C@@H]1c1ccc(NC23CC4CC(CC(C4)C2)C3)cc1 [Compound 101, 1-((1S,3S)-1-(4-(((3R,5R,7R)-adamantan-1-yl)amino)phenyl)-3-butyl-6-methoxy-3,4-dihydroisoquinolin-2(1H)-yl)prop-2-yn-1-one hydrochloride]

IC50 (786-O [3]; Homo sapiens, 786-0, 24 h): 0.021 µM | IC50 (SJSA-1 [4]; Homo sapiens): 0.021 µM | IC50 (A431; [8]): 6.13 µM
SMILES: C#CC(=O)N1[C@@H](CCCC)Cc2cc(OC)ccc2[C@@H]1c1ccc(NC(=O)C2CCC2)cc1 [Compound 102, N-(4-((1S,3S)-3-butyl-6-methoxy-2-propioloyl-1,2,3,4-tetrahydroisoquinolin-1-yl)phenyl)cyclobutanecarboxamide]

The next lines start with the compound.

SMILES: C#CC(=O)N1[C@@H](c2ccc(C(=O)NC3CC3)cc2)c2ccc(OC)cc2C[C@@H]1C [Compound 4, N-cyclopropyl-4-((1S,3S)-6-methoxy-3-methyl-2-propioloyl-1,2,3,4-tetrahydroisoquinolin-1-yl)benzamide]
IC50 (786-O [1]; [6]): 5.73 µM | IC50 (SJSA-1 [2]; [7]): 3.56 µM

SMILES: COc1ccc2c(c1)C[C@H](C)N(C(=O)CCl)[C@H]2c1ccc(C(=O)NC2CC2)cc1 [Compound 5, 4-((1S,3S)-2-(2-chloroacetyl)-6-methoxy-3-methyl-1,2,3,4-tetrahydroisoquinolin-1-yl)-N-cyclopropylbenzamide]
IC50 (786-O [1]; [6]): > 10 µM | IC50 (SJSA-1 [2]; [7]): > 10 µM

SMILES: COc1ccc2c(c1)C[C@H](C)N(C(=O)CCl)[C@H]2c1ccc(F)cc1 [Compound 8]
IC50 (786-O [3]; Homo sapiens, 786-0, 24 h): 0.181 µM | IC50 (SJSA-1 [4]; Homo sapiens): 0.183 µM | IC50 (A431; [8]): 7.9 µM | IC50 (786-O [1]; [6]): > 10 µM | IC50 (786-O [1]; [9]): 0.181 µM | IC50 (SJSA-1 [2]; [7]): > 10 µM | IC50 (SJSA-1 [2]; [10]): 0.183 µM

SMILES: C#CC(=O)N1[C@@H](c2ccc(F)cc2)c2ccc(OC)cc2C[C@@H]1C [Compound 9]
IC50 (786-O [3]; Homo sapiens, 786-0, 24 h): 0.223 µM | IC50 (SJSA-1 [4]; Homo sapiens): 0.436 µM | IC50 (A431; [8]): 4.9 µM | IC50 (786-O [1]; [6]): > 10 µM | IC50 (786-O [1]; [9]): 0.223 µM | IC50 (SJSA-1 [2]; [10]): 0.436 µM

SMILES: C#CC(=O)N1[C@@H](CCCC)Cc2cc(OC)ccc2[C@@H]1c1ccc(F)cc1 [Compound 12, 1-((1S,3S)-3-butyl-1-(4-fluorophenyl)-6-methoxy-3,4-dihydroisoquinolin-2(1H)-yl)prop-2-yn-1-one]
IC50 (786-O [3]; Homo sapiens, 786-0, 24 h): 0.014 µM | IC50 (SJSA-1 [4]; Homo sapiens): 0.025 µM | IC50 (A431; [8]): 3.5 µM | AUC [5]: 181 ng·h/mL | Cmax [5]: 882 ng/mL | Vd [5]: 19.5 L/kg | clearance [5]: 454 mL/min/kg | half-life [5]: 30 min

SMILES: C#CC(=O)N1[C@@H](CCCC)Cc2cc(OC)ccc2[C@@H]1c1ccc(NC23CC4CC(CC(C4)C2)C3)cc1 [Compound 28, 1-((1S,3S)-1-(4-(((3R,5R,7R)-adamantan-1-yl)amino)phenyl)-3-butyl-6-methoxy-3,4-dihydroisoquinolin-2(1H)-yl)prop-2-yn-1-one]
IC50 (786-O [3]; Homo sapiens, 786-0, 24 h): 0.004 µM | IC50 (SJSA-1 [4]; Homo sapiens): 0.016 µM | IC50 (A431; [8]): 2.9 µM | AUC [5]: 1640 ng·h/mL | Cmax [5]: 5450 ng/mL | Vd [5]: 14.7 L/kg | clearance [5]: 49 mL/min/kg | half-life [5]: 210 min | AUC (Rat IV pharmacokinetics): 1080 ng·h/mL | Cmax (Rat IV pharmacokinetics): 3530 ng/mL | Vd (Rat IV pharmacokinetics): 8.2 L/kg | clearance (Rat IV pharmacokinetics): 30 mL/min/kg | half-life (Rat IV pharmacokinetics): 189 min

SMILES: COC(=O)c1ccc([C@@H]2c3ccc(OC)cc3C[C@H](C(=O)OC)N2C(=O)CCl)cc1 [Compound 41]
IC50 (A549): 1.31 µM | IC50 (KP4): 0.042 µM

SMILES: COC(=O)c1ccc([C@H]2c3sccc3C[C@H](C(=O)OC)N2C(=O)CCl)cc1 [Compound 42]
IC50 (A549): 5.05 µM | IC50 (KP4): 0.0618 µM

SMILES: COC(=O)c1ccc([C@@H]2c3sccc3C[C@H](C(=O)OC)N2C(=O)CCl)cc1 [Compound 43]
IC50 (A549): 10.3 µM | IC50 (KP4): 0.525 µM

SMILES: COc1cc2c(cc1OC)[C@H](c1ccc(N3CCOCC3)cc1)N(C(=O)CCl)[C@@H](C)C2 [Compound 44]
IC50 (786-O [3]; Homo sapiens, 786-0, 24 h): 0.592 µM | IC50 (SJSA-1 [4]; Homo sapiens): 0.599 µM | IC50 (A549): 6.58 µM

SMILES: COc1cc2c(cc1OC)[C@@H](c1ccc(N3CCOCC3)cc1)N(C(=O)CCl)[C@@H](C)C2 [Compound 45]
IC50 (786-O [3]; Homo sapiens, 786-0, 24 h): 5.89 µM | IC50 (SJSA-1 [4]; Homo sapiens): > 3 µM | IC50 (A549): 4.74 µM
